Values after ≈ are worked out from the molar mass of the structure shown. Where a SMILES comes first, the peptide text is derived from it. Where no end group is shown, it is not given here. [ ]: non-standard residue; d: D form.
Assays:
[1] = XTT cytotoxicity / LD50 calculation; type: cell-based, murine; details: mouse, RAW 264.7 cells (macrophages); peptides 2 h, then XTT 2 h; concentration at which 50% of cells were dead, from linear graph
Experimental: (§1) LD50 is the calculated amount of chemical that causes the death of 50% of the population tested, in this case, RAW 264.7. Each well was seeded with 1 × 10^5 cells 1 day before the experiment. Peptides were added in several doses and incubated with the cells for 2 h, followed by 2 h of XTT. We performed a linear graph and calculated the concentration in which 50% were dead.
(§2) DMEM supplemented with low endotoxin FBS (10%), L-glutamine (1%), sodium pyruvate (1%), pen–strep (1%), and unessential amino acids (1%) was used to grow RAW 264.7 cells at 37 °C in a humidified atmosphere containing 5% CO2 and 95% air. A 96-well Falcon plate was utilized for the assay, with each well containing 1 × 10^5 cells in a 200 μL medium, cultured overnight and washed with phosphate-buffered saline (PBS) before the experiment. Peptides were added to the wells at various concentrations for 2 h, followed by XTT with fresh medium for another 2 h. The optical density was measured at 450 nm using an enzyme-linked immunosorbent assay plate reader, and cell viability was determined relative to the control.

Lactobacilli ATCC 25258 = type: cell-based; details: ATCC 25258, 18 h
Experimental: (§3) The peptide’s minimal inhibitory concentration (MIC) was examined as previously described.[44] In brief, sterile 96-well U-bottom polystyrene plates were used to evaluate peptide activity. Bacterial cells including S. Typhi ATCC 14028s, E. coli ATCC 35218, S. aureus ATCC P8538, and Lactobacilli ATCC 25258 were cultured in Mueller Hinton broth (MHB) at 37 °C overnight. The cells were then washed, centrifuged, and re-suspended in MHB medium. Afterward, 50 μL aliquots of suspended bacteria (1 × 10^6 colony forming units, CFU mL^–1) were added to 50 μL BM2 medium, which contained peptides in serial twofold dilutions. The plates were then incubated at 37 °C for 18 h. The inhibition of growth was determined by measuring the absorbance at 600 nm using a microplate autoreader. The MIC was defined as the concentration at which 90% growth inhibition was observed after 18 h of incubation.

E. coli ATCC 35218 = type: cell-based, Escherichia coli; details: ATCC 35218, 18 h
Experimental: as §3

S. aureus ATCC P8538 = type: cell-based, Staphylococcus aureus; details: ATCC P8538, 18 h
Experimental: as §3

S. Typhi ATCC 14028s = type: cell-based, Salmonella Typhi; details: ATCC 14028, 18 h
Experimental: as §3

pig erythrocytes = type: cell-based; details: pH 7.3
Experimental: To examine the hemolytic properties of the peptides, a concentration of 100 μM was used. A 4% suspension of pig erythrocytes, freshly collected and washed three times in phosphate-buffered saline (PBS, pH 7.3), was used for this purpose. After incubation at 37 °C for 1 h, the suspension was centrifuged at 800g for 10 min, and the absorbance at 540 nm was measured. Complete hemolysis was determined by adding 1% Triton X-100, while adding only PBS was used to determine 0% hemolysis.The hemolysis calculation was as follows: % hemolysis = (ODPeptide – ODBuffer)/(ODTriton1% – ODBuffer) × 100.

RAW 264.7 cells = assay: XTT cytotoxicity / LD50 calculation; type: cell-based, murine; details: XTT, RAW 264.7 macrophages
Experimental: as §1, §2

Row | Compound | CC50 at 2 h [1] | MIC Lactobacilli ATCC 25258 (Lactobacilli ATCC 25258) | MIC E. coli ATCC 35218 (E. coli ATCC 35218) | MIC S. aureus ATCC P8538 (S. aureus ATCC P8538) | MIC S. Typhi ATCC 14028s (S. Typhi ATCC 14028s) | % hemolysis (100 μM) (pig erythrocytes) | Concentration toxic to RAW 264.7 cells (RAW 264.7 cells)
1 | CC[C@H](C)[C@H](NC(=O)CNC(=O)[C@H](CCCCN)NC(=O)[C@H](CCCCN)NC(=O)[C@H](CCCCN)NC(=O)[C@H](CCCCN)NC(=O)[C@@H](N)CCCCN)C(=O)NCC(=O)N[C@H](Cc1ccccc1)C(=O)N[C@@H](CC(C)C)C(=O)N[C@@H](C)C(=O)N[C@H](Cc1ccccc1)C(=O)NCC(=O)N[C@@H](C)C(=O)N[C@@H](Cc1ccccc1)C(=O)N[C@H](C(=O)N[C@H](C(=O)N[C@@H](CC(C)C)C(=O)N[C@@H](CCCCN)C(=O)N[C@@H](CCCCN)C(=O)N[C@@H](CCCCN)C(=O)N[C@@H](CCCCN)C(N)=O)[C@@H](C)CC)C(C)C [MSI-Seg-F2F] (H-KKKKKGIG[dF]LA[dF]GAFVILKKKK-NH2) | > 100 µM | 12.5 µM (≈ 31 µg/mL) | 12.5 µM (≈ 31 µg/mL) | 12.5 µM (≈ 31 µg/mL) | 25 µM (≈ 61.9 µg/mL) | 8.1 ± 3.2% | 
2 | GIGKFLKKAKKFGKAFVKILKK-NH2 [MSI-78, Pexiganan] | 43.1 µM | 1.56 µM | 3.12 µM | 6.25 µM | 12.5 µM | 15.2 ± 1.1% | 40 µM
3 | KKKKKFIGLFAGGIVLAFKKKK-NH2 [MSI-Seg-Scr] | > 100 µM | 12.5 µM | 12.5 µM | 12.5 µM | 25 µM | 3.9 ± 1.4% | 
4 | KKKKKGIGFLAFGAFVILKKKK-NH2 [MSI-Seg] | > 100 µM | >50 µM | 12.5 µM | 12.5 µM | 25 µM | 16.6 ± 4.2% | 
5 | KKKKKGIGGLAGGAFVILKKKK-NH2 [MSI-Seg-F2G] | > 100 µM | >50 µM | >50 µM | 25 µM | >50 µM | 1.2 ± 30.2% | 
6 | KKKKKKKGIGFLAFGAFVKILK-NH2 [MSI-N7K] | 60.9 µM | 25 µM | 25 µM | 25 µM | 25 µM | 10 ± 5.6% | 60 µM
